Assay results: US20240342127A1, “METHODS OF TREATING COPPER METABOLISM-ASSOCIATED DISEASES OR DISORDERS” (Alexion Pharmaceuticals, Inc., priority 2021, published 2024)

Legend:
[1] = tested on: participants with WD
Experimental: Incremental dose increases are permitted, but not required, up to a maximum of 60 mg/day.
In summary, the maximum daily dose permitted in this study (Study 302) has been set as […].

[2] = compared with other treatments; cited from earlier work
[3] = tested on: patients with WD; conditions: cited from earlier work
[4] = in vivo

## Bis-choline tetrathiomolybdate [BC-TTM]
[1]; 48-week Primary Evaluation Period, overall mean daily dose 15.6 mg
  copper mobilization from tissue to blood compared with SoC, as measured by daily mean dNCC AUEC0-48 weeks: approximately 3 fold
[1]; in vivo
  participants with Grade 2 ALT elevations during treatment: approximately 15%
[2]
  binding affinity to copper: greater binding affinity to copper compared with other treatments
[3]; Week 24, 28 patients with WD, monotherapy
  reduction of mean serum non-ceruloplasmin-bound Cu (NCC) compared with baseline: 72%
[3]; human, in vivo
  most frequently reported drug-related AEs: changes in hematological parameters, fatigue, sulphur eructations, and other gastrointestinal symptoms
  paradoxical neurological worsening upon treatment initiation: No paradoxical neurological worsening was observed
  patients with reversible liver function test elevations: 39%
  severity of most reported adverse events: mild (Grade 1) to moderate (Grade 2)
  tolerability of treatment: generally well-tolerated
[4]
  effect of age, sex or body weight on PK: not significant covariates
